Measurements from the Bradley open melting point set (2014).
“And” between values parts separate entries of the source, which are not always exact repeats. Equal values may be shown once.

Row | Structure (SMILES) | melting point
1 | CCOC(=O)CC(C)C [ethyl_isovalerate] | -99 °C
2 | NCCN [ethylenediamine] | 10 °C
3 | COP(=S)(OC)Oc1cc(Cl)c(Cl)cc1Cl [fenchlorphos] | 35 °C
4 | CC1(C)C(=O)[C@@]2(C)CC[C@@H]1C2 [fenchone] | 6 °C
5 | c1ccc(C(CCN2CCCCC2)c2ccccc2)cc1 [fenpiprane] | 41 °C
6 | CC1CCc2cc(F)cc3c(=O)c(C(=O)O)cn1c23 (configuration not stated) [flumequine] | 253 °C
7 | O=C1OC2(c3ccc(O)cc3Oc3cc(O)ccc32)c2ccccc21 [fluorescein] | 320 °C
8 | O=[N+]([O-])c1ccc(Oc2ccc(C(F)(F)F)cc2[N+](=O)[O-])cc1 [fluorodifen] | 94 °C
9 | CF [fluoromethane] | -142 °C
10 | O=C(O)/C=C/C(=O)O [fumaric acid] | 300 °C
11 | OC[C@H]1O[C@H](O)[C@H](O)[C@@H](O)[C@@H]1O [glucose] | 150 °C and 146 °C (3×) and 147 °C
12 | CCC1(c2ccccc2)CCC(=O)NC1=O (configuration not stated) [glutethimide] | 87.5 °C
13 | c1ccc(OCC2CO2)cc1 (configuration not stated) [glycidyl phenyl ether] | 4 °C
14 | CCC1(C2=CCCCCC2)C(=O)NC(=O)NC1=O [heptabarbital] [listing 1 of 2 here] | 174 °C
15 | CCC1(C2=CCCCCC2)C(=O)NC(=O)NC1=O [heptabarbital] [listing 2 of 2 here] | 174 °C
16 | ClC1/C=C\C2C3(Cl)C(\Cl)=C(\Cl)C(Cl)(C12)C3(Cl)Cl (configuration not stated) [heptachlor] | 95 °C and 95.5 °C
17 | CCCCCCC=O [heptanal] | -43 °C
18 | CC1(c2ccccc2)C(=O)NC(=O)NC1=O [heptobarbital] | 228 °C
19 | CC(=O)Oc1ccc2c3c1O[C@H]1[C@@H](OC(C)=O)C=C[C@H]4[C@@H](C2)N(C)CC[C@@]341 [heroin] | 173 °C
20 | COc1ccc([C@@H]2CC(=O)c3c(O)cc(O)cc3O2)cc1O [hesperetin] | 228 °C
21 | Clc1c(Cl)c(Cl)c(Cl)c(Cl)c1Cl [hexachlorobenzene] [listing 1 of 2 here] | 231 °C
22 | Clc1c(Cl)c(Cl)c(Cl)c(Cl)c1Cl [hexachlorobenzene] [listing 2 of 2 here] | 230 °C and 229 °C
23 | Cc1c(C)c(C)c(C)c(C)c1C [hexamethylbenzene] | 165 °C
24 | CCCCCC(N)=O [hexanamide] | 101 °C

Row | Structure (SMILES) | melting point
25 | O=C1CNC(=O)N1 [hydantoin] | 222 °C
26 | c1ccc(NNc2ccccc2)cc1 [hydrazobenzene] | 125 °C
27 | NS(=O)(=O)c1cc2c(cc1Cl)NCNS2(=O)=O [hydrochlorothiazide] | 269 °C
28 | C[C@]12CCC(=O)C=C1CC[C@@H]1[C@@H]2[C@@H](O)C[C@@]2(C)[C@H]1CC[C@]2(O)C(=O)CO [hydrocortisone] [listing 1 of 2 here] | 214 °C
29 | C[C@]12CCC(=O)C=C1CC[C@@H]1[C@@H]2[C@@H](O)C[C@@]2(C)[C@H]1CC[C@]2(O)C(=O)CO [hydrocortisone] [listing 2 of 2 here] | 221 °C
30 | CC(C(O)c1ccc(O)cc1)N1CCC(Cc2ccccc2)CC1 (configuration not stated) [ifenprodil] | 114 °C
31 | O=P1(NCCCl)OCCCN1CCCl (configuration not stated) [ifosfamide] | 45.5 °C and 48 °C
32 | IC(I)I [iodoform] | 122 °C
33 | CC(C)Oc1ccc2c(=O)c(-c3ccccc3)coc2c1 [ipriflavone] | 115 °C
34 | CCOP(=S)(OCC)Oc1nc(Cl)n(C(C)C)n1 [isazophos] | 25 °C
35 | CC(=O)OCCC(C)C [isoamyl_acetate] | -78 °C
36 | CC(C)CN [isobutylamine] | -85 °C
37 | CC(C)C(N)=O [isobutyramide] | 129 °C
38 | CC(=O)OCCC(C)C [isopentyl acetate] | -78 °C
39 | O=C(Cl)c1cccc(C(=O)Cl)c1 [isophthaloyl dichloride] | 44 °C
40 | C=CC(=C)C [isoprene] | -146 °C
41 | CC(=O)CC(=O)OC(C)C [isopropyl acetoacetate] | -27 °C
42 | CC(C)OC(=O)Nc1ccccc1 [isopropyl n-phenylcarbamate] | 88 °C
43 | CC(C)C(C(=O)O)C(=O)O [isopropylmalonic acid] | 89 °C
44 | O=[N+]([O-])O[C@H]1CO[C@H]2[C@@H]1OC[C@H]2O[N+](=O)[O-] [isosorbide dinitrate] | 70 °C
45 | CC(C)CC(=O)O [isovaleric acid] | -29.3 °C
46 | O=C(O)c1nn(Cc2ccc(Cl)cc2Cl)c2ccccc12 [lonidamine] | 207 °C
47 | O=C1Nc2ccc(Cl)cc2C(c2ccccc2Cl)=NC1O (configuration not stated) [lorazepam] | 167 °C
48 | CC[C@H](C)C(=O)O[C@H]1C[C@@H](C)C=C2C=C[C@H](C)[C@H](CC[C@@H]3C[C@@H](O)CC(=O)O3)[C@H]21 [lovastatin] | 174 °C

The remaining lines, values ahead:

Row | melting point | Structure (SMILES)
49 | 55 °C | CCOC(=O)c1ccc(C(C)=O)cc1 [ethyl_p-acetylbenzoate]
50 | 54 °C | CCOC(=O)c1ccc(C#N)cc1 [ethyl_p-cyanobenzoate]
51 | 116 °C | CCOC(=O)c1ccc(O)cc1 [ethylparaben]
52 | 134 °C | O=C(O)c1ccccc1Nc1cccc(C(F)(F)F)c1 [flufenamic acid]
53 | 116 °C | c1ccc2c(c1)Cc1ccccc1-2 [fluorene]
54 | 114 °C | CCOC(=O)Nc1ccc(NCc2ccc(F)cc2)nc1N [flupirtine]
55 | 110 °C | CC(C(=O)O)c1ccc(-c2ccccc2)c(F)c1 (configuration not stated) [flurbiprofen] [listing 1 of 2 here]
56 | 110 °C | CC(C(=O)O)c1ccc(-c2ccccc2)c(F)c1 (configuration not stated) [flurbiprofen] [listing 2 of 2 here]
57 | 47 °C | O=CNc1ccccc1 [formanilide]
58 | 168 °C | O=C(O)c1ccccc1OP(=O)(O)O [fosfosal]
59 | 142 °C | OB(O)c1ccoc1 [furan-3-boronic acid]
60 | 164 °C | N=C(N)NCC1COc2ccccc2O1 (configuration not stated) [guanoxan]
61 | 190 °C | O=C(O)CNC(=O)c1ccccc1 [hippuric acid]
62 | 142 °C | O=C1Cc2ccccc2C(=O)O1 [homophthalic anhydride]
63 | 134 °C | Cc1ccc(S(=O)(=O)OI(O)c2ccccc2)cc1 [hydroxy(tosyloxy)iodobenzene]
64 | 75 °C | CC(C)Cc1ccc(C(C)C(=O)O)cc1 (configuration not stated) [ibuprofen]
65 | -51 °C | c1ccc2c(c1)CCC2 [indane]
66 | 173 °C | OB(O)c1ccc2[nH]ccc2c1 [indole-5-boronic acid]
67 | 208 °C | O=C(NC1CCN(CCc2c[nH]c3ccccc23)CC1)c1ccccc1 [indoramin]
68 | -31 °C | Ic1ccccc1 [iodobenzene]
69 | 114 °C | O=C(O)CCCCC=C(c1ccccc1)c1cccnc1 [isbogrel]
70 | 1 °C | CC(C)C(=O)c1ccccc1 [isobutyrophenone]
71 | -10 °C | C/C=C/c1ccc(O)c(OC)c1 [isoeugenol, cis trans]
72 | 171 °C | NNC(=O)c1ccncc1 [isoniazid]
73 | 172 °C | NNC(=O)c1ccncc1 [isonicotinic acid hydrazide]
74 | 270 °C | O=C(O)c1cc[n+]([O-])cc1 [isonicotinic acid n-oxide]
75 | 148 °C | COC(=O)c1cccc(C(N)=O)c1 [isophthalic_acid,_methylester_amide]
76 | 94 °C (2×) and 93 °C | CC(C(=O)O)c1cccc(C(=O)c2ccccc2)c1 (configuration not stated) [ketoprofen]
77 | 188 °C | CC(CCc1ccccc1)NCC(O)c1ccc(O)c(C(N)=O)c1 (configuration not stated) [labetalol]
